Results: ChEMBL document CHEMBL6182839, “Exploration of the cytotoxic and microtubule disruption potential of novel imidazo[1,5-a]pyridine-based chalcones” (RSC Med Chem, 2025)
pIC50: −log10 of the molar value. Active and inactive are the calls of the source. The calls are words filed in the database; no cut-off is given here.

How the values were obtained:
[1] = test system: MG-63; test: Cytotoxicity against human MG-63 cells assessed as inhibition of cell growth incubated for 48 hrs by MTT assay; type: functional, cell-based; settings: MG-63, 48 h
[2] = test system: PC-3; test: Cytotoxicity against human PC-3 cells assessed as inhibition of cell growth incubated for 48 hrs by MTT assay; type: functional, cell-based; settings: PC-3, 48 h
[3] = test system: RKO; test: Cytotoxicity against human RKO cells assessed as inhibition of cell growth incubated for 48 hrs by MTT assay; type: functional, cell-based
[4] = test system: HepG2; test: Cytotoxicity against human HepG2 cells assessed as inhibition of cell growth incubated for 48 hrs by MTT assay; type: functional, cell-based; settings: HepG2, 48 h
[5] = test system: MDA-MB-231; test: Cytotoxicity against human MDA-MB-231 cells assessed as inhibition of cell growth incubated for 48 hrs by MTT assay; type: functional, cell-based; settings: MDA-MB-231, 48 h
[6] = test system: Mitochondrial membrane; test: Induction of mitochondrial membrane potential depolarization in human MDA-MB-231 cells at 5 to 10 uM incubated for 24 hrs by JC-1 dye based flow cytometric analysis; settings: dose 5-10 µM
[7] = test system: MDA-MB-231; test: Induction of intracellular ROS generation in human MDA-MB-231 cells at 5 to 10 uM incubated for 24 hrs by H2DCFDA staining based flow cytometric analysis; type: functional, cell-based; settings: dose 5-10 µM
[8] = test system: MDA-MB-231; test: Induction of apoptosis in human MDA-MB-231 cells assessed as viable cells at 10 uM incubated for 24 hrs by annexin V-FITC/PI staining based flow cytometry analysis (reference value: 98.4%); type: functional; settings: read-out: Activity
[9] = test system: MDA-MB-231; test: Induction of apoptosis in human MDA-MB-231 cells assessed as necrotic cells at 10 uM incubated for 24 hrs by annexin V-FITC/PI staining based flow cytometry analysis (reference value: 0.0%); type: functional
[10] = test system: MDA-MB-231; test: Induction of apoptosis in human MDA-MB-231 cells assessed as early apoptotic cells at 10 uM incubated for 24 hrs by annexin V-FITC/PI staining based flow cytometry analysis (reference value: 1.4%); type: functional
[11] = test system: MDA-MB-231; test: Induction of apoptosis in human MDA-MB-231 cells assessed as late apoptotic cells at 10 uM incubated for 24 hrs by annexin V-FITC/PI staining based flow cytometry analysis (reference value: 0.2%); type: functional
[12] = Cytotoxicity against HEK cells assessed as inhibition of cell growth incubated for 48 hrs by MTT assay; type: toxicity, cell-based; settings: human
[13] = test system: MDA-MB-231; test: Induction of apoptosis in human MDA-MB-231 cells assessed as viable cells at 5 uM incubated for 24 hrs by annexin V-FITC/PI staining based flow cytometry analysis (reference value: 98.4%); type: functional; settings: read-out: Activity
[14] = target: T1, Tubulin (Homo sapiens) (UniProt P68371+Q9H4B7+P0DPH7+P68366+Q13509+Q71U36+P04350+Q3ZCM7+P07437+P68363+Q9BQE3+Q6PEY2+Q13885+Q9BVA1+Q9BUF5); test: Disruption of microtubule network in human MDA-MB-231 cells assessed as decrease in beta-tubulin expression at 5 to 10 uM incubated for 24 hrs by immunofluorescence staining based confocal microscopic analysis; type: cell-based; settings: dose 5-10 µM
[15] = test system: MDA-MB-231; test: Induction of apoptosis in human MDA-MB-231 cells assessed as late apoptotic cells at 5 uM incubated for 24 hrs by annexin V-FITC/PI staining based flow cytometry analysis (reference value: 0.2%); type: functional
[16] = target: T1, Tubulin (Homo sapiens); test: Disruption of microtubule network in human MDA-MB-231 cells assessed as decrease in beta-tubulin expression incubated for 24 hrs by immunofluorescence staining based confocal microscopic analysis; type: cell-based; settings: dose 5-10 µM
[17] = Selectivity ratio of IC50 for HEK cells to IC50 for human MDA-MB-231 cells; type: toxicity; settings: HEK cells versus MDA-MB-231 cells, read-out: Ratio IC50
[18] = test system: MDA-MB-231; test: Induction of apoptosis in human MDA-MB-231 cells assessed as necrotic cells at 5 uM incubated for 24 hrs by annexin V-FITC/PI staining based flow cytometry analysis (reference value: 0.0%); type: functional
[19] = test system: MDA-MB-231; test: Induction of apoptosis in human MDA-MB-231 cells assessed as early apoptotic cells at 5 uM incubated for 24 hrs by annexin V-FITC/PI staining based flow cytometry analysis (reference value: 1.4%); type: functional
[20] = Selectivity ratio of IC50 for HEK cells to IC50 for human HepG2 cells; type: toxicity; settings: HEK cells versus HepG2 cells, read-out: Ratio IC50
[21] = Selectivity ratio of IC50 for HEK cells to IC50 for human PC-3 cells; type: toxicity; settings: HEK cells versus PC-3 cells, read-out: Ratio IC50

Structure (SMILES) | pIC50 [1] | pIC50 [2] | pIC50 [3] | pIC50 [4] | pIC50 [5] | further results
O=C(/C=C/c1nc(-c2ccc(F)cc2)n2ccccc12)c1ccc(F)c(F)c1 | 4.94 | < 4.30 | < 4.30 | < 4.30 | < 4.30 | –
COC(=O)Nc1nc2cc(C(=O)c3cccs3)ccc2[nH]1 [NOCODAZOLE] | 5.90 | 5.54 | 5.59 | 5.67 | 5.49 | Activity [6]: Active; Activity [7]: Active; viability at 10 µM [8]: 46%; Activity [9]: 0%; Activity [10]: 5.6%; Activity [11]: 48.3%
COc1ccc(C(=O)/C=C/c2nc(-c3ccccc3)n3ccccc23)cc1OC | 4.25 | < 4.30 | < 4.30 | < 4.30 | < 4.30 | –
O=C(/C=C/c1nc(-c2ccccc2)n2ccccc12)c1ccc(F)c(F)c1 | 4.07 | < 4.30 | < 4.30 | < 4.30 | < 4.30 | –
O=C(/C=C/c1nc(-c2ccc(Cl)cc2)n2ccccc12)c1ccc(F)c(F)c1 | < 4.30 | < 4.30 | < 4.30 | < 4.30 | < 4.30 | –
O=C(/C=C/c1nc(-c2ccc(C(F)(F)F)cc2)n2ccccc12)c1ccc(F)c(F)c1 | < 4.30 | < 4.30 | < 4.30 | < 4.30 | < 4.30 | –
COc1ccc(-c2nc(/C=C/C(=O)c3ccc(OC)c(OC)c3)c3ccccn23)cc1 | 4.69 | < 4.30 | < 4.30 | < 4.30 | < 4.30 | –
O=C(/C=C/c1nc(-c2ccc(C(F)(F)F)cc2)n2ccccc12)c1ccc(Cl)c(Cl)c1 | < 4.30 | < 4.30 | < 4.30 | < 4.30 | < 4.30 | –
COc1cc(C(=O)/C=C/c2nc(-c3ccc(C(F)(F)F)cc3)n3ccccc23)cc(OC)c1OC | < 4.30 | < 4.30 | < 4.30 | < 4.30 | < 4.30 | –
COc1ccc(C(=O)/C=C/c2nc(-c3ccc(Cl)cc3)n3ccccc23)cc1OC | < 4.30 | < 4.30 | < 4.30 | < 4.30 | < 4.30 | –
O=C(/C=C/c1nc(-c2ccc(Cl)cc2)n2ccccc12)c1ccc(Cl)c(Cl)c1 | 5.10 | 4.83 | 5.11 | 5.34 | 5.49 | Activity [6]: Active; IC50 at 48 h [12]: 62 µM; viability at 5 µM [13]: 66.5%; Activity [14]: Active; Activity [15]: 26.9%; Activity [16]: Dose-dependent-effect; selectivity ratio [17]: 19; Activity [7]: Active; viability at 10 µM [8]: 48.6%; Activity [18]: 1.6%; Activity [19]: 5.1%; selectivity ratio [20]: 13; Activity [9]: 0.3%; selectivity ratio [21]: 4; Activity [10]: 21.2%; Activity [11]: 29.9%
COc1cc(C(=O)/C=C/c2nc(-c3ccccc3)n3ccccc23)cc(OC)c1OC | 4.90 | < 4.30 | < 4.30 | 4.87 | 4.91 | –
COc1ccc(C(=O)/C=C/c2nc(-c3ccc(F)cc3)n3ccccc23)cc1OC | < 4.30 | < 4.30 | < 4.30 | < 4.30 | < 4.30 | –
COc1ccc(C(=O)/C=C/c2nc(-c3ccc(C(F)(F)F)cc3)n3ccccc23)cc1OC | < 4.30 | < 4.30 | < 4.30 | < 4.30 | < 4.30 | –
COc1ccc(-c2nc(/C=C/C(=O)c3ccc(F)c(F)c3)c3ccccn23)cc1 | 4.49 | < 4.30 | < 4.30 | < 4.30 | < 4.30 | –
O=C(/C=C/c1nc(-c2ccccc2)n2ccccc12)c1ccc(Cl)c(Cl)c1 | 4.34 | < 4.30 | < 4.30 | < 4.30 | < 4.30 | –
COc1ccc(-c2nc(/C=C/C(=O)c3ccc(Cl)c(Cl)c3)c3ccccn23)cc1 | 4.33 | < 4.30 | < 4.30 | < 4.30 | < 4.30 | –
O=C(/C=C/c1nc(-c2ccc(F)cc2)n2ccccc12)c1ccc(Cl)c(Cl)c1 | 4.99 | < 4.30 | < 4.30 | < 4.30 | < 4.30 | –
COc1cc(C(=O)/C=C/c2nc(-c3ccc(Cl)cc3)n3ccccc23)cc(OC)c1OC | 5.21 | 4.75 | 4.73 | 4.68 | 5.37 | Activity [6]: Active; IC50 at 48 h [12]: 50 µM; viability at 5 µM [13]: 90.6%; Activity [14]: Active; Activity [15]: 5.5%; Activity [16]: Dose-dependent-effect; selectivity ratio [17]: 11; Activity [7]: Active; viability at 10 µM [8]: 67.2%; Activity [18]: 0%; Activity [19]: 3.8%; selectivity ratio [20]: 2; Activity [9]: 0.3%; selectivity ratio [21]: 3; Activity [10]: 18.6%; Activity [11]: 13.9%
COc1cc(C(=O)/C=C/c2nc(-c3ccc(F)cc3)n3ccccc23)cc(OC)c1OC | < 4.30 | < 4.30 | < 4.30 | < 4.30 | < 4.30 | –
COc1ccc(-c2nc(/C=C/C(=O)c3cc(OC)c(OC)c(OC)c3)c3ccccn23)cc1 | 4.67 | < 4.30 | < 4.30 | < 4.30 | < 4.30 | –
